SMILES strings stand for the structures.

The assay deals with T1, mTOR (Homo sapiens, UniProt P42345).
T1 construct: FLAG; made in house
The assay can be described thus: In Vitro mTOR Kinase Assay (Echo), Test (a)(ii). Format: biochemical. The note with it: table of enzyme assay Test (a)(ii); read-out: Test (a)(ii) IC50. In a few lines:
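Inhibition of truncated mTOR (1362-2549, FLAG-tagged, purified from stably transfected HEK293 cells) is measured as reduced AlphaScreen signal from a phospho-T389-recognising antibody bound to the biotinylated peptide product. Kinase incubation lasts 2 hours at room temperature. Potency is given as IC50.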

T1 sequence (P42345 1362-2549): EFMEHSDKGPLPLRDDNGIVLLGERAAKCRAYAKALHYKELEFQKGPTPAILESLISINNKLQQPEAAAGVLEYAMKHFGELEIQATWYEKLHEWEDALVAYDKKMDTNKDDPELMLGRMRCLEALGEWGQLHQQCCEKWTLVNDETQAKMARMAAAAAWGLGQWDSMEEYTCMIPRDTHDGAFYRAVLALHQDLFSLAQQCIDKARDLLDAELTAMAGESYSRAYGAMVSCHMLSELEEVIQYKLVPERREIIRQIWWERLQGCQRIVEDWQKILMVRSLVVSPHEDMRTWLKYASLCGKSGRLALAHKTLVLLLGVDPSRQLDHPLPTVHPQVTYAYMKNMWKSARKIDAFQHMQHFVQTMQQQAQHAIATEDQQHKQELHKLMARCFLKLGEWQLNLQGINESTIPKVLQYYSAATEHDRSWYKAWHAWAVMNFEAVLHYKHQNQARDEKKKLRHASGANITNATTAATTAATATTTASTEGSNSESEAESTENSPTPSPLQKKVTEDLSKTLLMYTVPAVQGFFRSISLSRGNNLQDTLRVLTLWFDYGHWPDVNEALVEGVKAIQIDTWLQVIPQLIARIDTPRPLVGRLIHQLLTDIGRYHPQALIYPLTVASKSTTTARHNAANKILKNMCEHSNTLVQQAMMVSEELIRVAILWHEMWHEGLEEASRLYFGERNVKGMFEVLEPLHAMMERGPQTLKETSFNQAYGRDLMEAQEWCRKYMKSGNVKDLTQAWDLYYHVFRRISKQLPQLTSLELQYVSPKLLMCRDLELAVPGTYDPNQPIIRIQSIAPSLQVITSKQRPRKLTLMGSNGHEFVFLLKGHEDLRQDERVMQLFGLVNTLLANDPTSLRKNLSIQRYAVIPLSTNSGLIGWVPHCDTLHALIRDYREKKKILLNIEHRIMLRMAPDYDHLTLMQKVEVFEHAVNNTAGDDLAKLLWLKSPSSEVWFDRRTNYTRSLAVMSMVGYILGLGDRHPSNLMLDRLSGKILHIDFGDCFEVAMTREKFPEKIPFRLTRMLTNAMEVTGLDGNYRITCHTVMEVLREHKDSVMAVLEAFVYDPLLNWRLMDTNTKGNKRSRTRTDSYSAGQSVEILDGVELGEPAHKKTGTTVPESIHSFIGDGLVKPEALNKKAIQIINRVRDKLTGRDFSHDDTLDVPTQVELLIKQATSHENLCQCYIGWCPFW

The IC50 is the concentration that gives 50% inhibition. For the compound `C[C@H]1COCCN1c1cc(C2(S(=O)(=O)C3CC3)CC2)nc(-c2ccc(NC(=O)NC3CC3)nc2)n1` [Example 14, 3-Cyclopropyl-1-[5-[4-(1-cyclopropylsulfonylcyclopropyl)-6-[(3S)-3-methylmorpholin-4-yl]pyrimidin-2-yl]pyridin-2-yl]urea], the IC50 is 46.5 nM.

Regarding `CNC(=O)Nc1ccc(-c2nc(N3CCOC[C@@H]3C)cc(C3(S(=O)(=O)C4CC4)CC3)n2)cn1` [Example 14a, 1-[5-[4-(1-cyclopropylsulfonylcyclopropyl)-6-[(3S)-3-methylmorpholin-4-yl]pyrimidin-2-yl]pyridin-2-yl]-3-methylurea], the IC50 amounted to 13.6 nM.

Turning to `C[C@H]1COCCN1c1cc(C2(S(=O)(=O)c3ccc(NCCO)cc3)CC2)nc(-c2cnc(NC(=O)NCCO)nc2)n1` [Example 14aa, 3-(2-hydroxyethyl)-1-[5-[4-[1-[4-(2-hydroxyethylamino)phenyl]sulf-onylcyclopropyl]-6-[(3S)-3-methylmorpholin-4-yl]pyrimidin-2-yl]pyrimidin-2-yl]urea], the IC50 was determined as 18.6 nM.

Regarding `C[C@H]1COCCN1c1cc(C2(S(=O)(=O)C3CC3)CC2)nc(-c2ccc(NC(=O)NCCN(C)C)nc2)n1` [Example 14b, 1-[5-[4-(1-cyclopropylsulfonylcyclopropyl)-6-[(3S)-3-methylmorpholin-4-yl]pyrimidin-2-yl]pyridin-2-yl]-3-(2-dimethylaminoethyl)urea], the concentration for half-maximal inhibition (IC50) was determined as 1390 nM.

In the case of `C[C@H]1COCCN1c1cc(C2(S(=O)(=O)C3CC3)CC2)nc(-c2ccc(NC(=O)NCCO)nc2)n1` [Example 14c, 1-[5-[4-(1-cyclopropylsulfonylcyclopropyl)-6-[(3S)-3-methylmorpholin-4-yl]pyrimidin-2-yl]pyridin-2-yl]-3-(2-hydroxyethyl)urea], the concentration for half-maximal inhibition (IC50) was determined as 40.1 nM.

For `C[C@H]1COCCN1c1cc(C2(S(=O)(=O)C3CC3)CC2)nc(-c2ccc(NC(=O)Nc3cnn(C)c3)nc2)n1` [Example 14d, 1-[5-[4-(1-cyclopropylsulfonylcyclopropyl)-6-[(3S)-3-methylmorpholin-4-yl]pyrimidin-2-yl]pyridin-2-yl]-3-(1-methylpyrazol-4-yl)urea], the IC50 came to 14.3 nM.

In the case of `C[C@H]1COCCN1c1cc(C2(S(=O)(=O)c3ccc(F)cc3)CC2)nc(-c2cnc(NC(=O)NC3CC3)nc2)n1` [Example 14e, 3-cyclopropyl-1-[5-[4-[1-(4-fluorophenyl)sulfonylcyclopro-pyl]-6-[(3S)-3-methylmorpholin-4-yl]pyrimidin-2-yl]pyrimidin-2-yl]urea], the IC50 was determined as 110 nM.

Regarding `CNC(=O)Nc1ncc(-c2nc(N3CCOC[C@@H]3C)cc(C3(S(=O)(=O)c4ccc(F)cc4)CC3)n2)cn1` [Example 14f, 1-[5-[4-[1-(4-fluorophenyl)sulfonylcyclopro-pyl]-6-[(3S)-3-methylmorpholin-4-yl]pyrimidin-2-yl]pyrimidin-2-yl]-3-methylurea], the IC50 was 189 nM.

In the case of `C[C@H]1COCCN1c1cc(C2(S(=O)(=O)c3ccc(F)cc3)CC2)nc(-c2cnc(NC(=O)NCCO)nc2)n1` [Example 14g, 1-[5-[4-[1-(4-fluorophenyl)sulfonylcyclopro-pyl]-6-[(3S)-3-methylmorpholin-4-yl]pyrimidin-2-yl]pyrimidin-2-yl]-3-(2-hydroxyethyl)urea], the concentration for half-maximal inhibition (IC50) was determined as 85.7 nM.

In the case of `C[C@H]1COCCN1c1cc(C2(S(=O)(=O)c3ccc(F)cc3)CC2)nc(-c2cnc(NC(=O)Nc3cnn(C)c3)nc2)n1` [Example 14h, 1-[5-[4-[1-(4-fluorophenyl)sulfonylcyclopro-pyl]-6-[(3S)-3-methylmorpholin-4-yl]pyrimidin-2-yl]pyrimidin-2-yl]-3-(1-methylpyrazol-4-yl)urea], the half-maximal inhibitory concentration (IC50) came out at 140 nM.

With `C[C@H]1COCCN1c1cc(C2(S(=O)(=O)c3ccc(F)cc3)CC2)nc(-c2ccc(NC(=O)NC3CC3)nc2)n1` [Example 14i, 3-cyclopropyl-1-[5-[4-[1-(4-fluorophenyl)sulfonylcyclopro-pyl]-6-[(3S)-3-methylmorpholin-4-yl]pyrimidin-2-yl]pyridin-2-yl]urea], the IC50 is 33.9 nM.

Consider `CNC(=O)Nc1ccc(-c2nc(N3CCOC[C@@H]3C)cc(C3(S(=O)(=O)c4ccc(F)cc4)CC3)n2)cn1` [Example 14j, 1-[5-[4-[1-(4-fluorophenyl)sulfonylcyclopro-pyl]-6-[(3S)-3-methylmorpholin-4-yl]pyrimidin-2-yl]pyridin-2-yl]-3-methylurea], for which the IC50 worked out at 12.9 nM.

For the compound `C[C@H]1COCCN1c1cc(C2(S(=O)(=O)c3ccc(F)cc3)CC2)nc(-c2ccc(NC(=O)NCCN(C)C)nc2)n1` [Example 14k, 3-(2-dimethylaminoethyl)-1-[5-[4-[1-(4-fluorophenyl)sulfonylcyclopro-pyl]-6-[(3S)-3-methylmorpholin-4-yl]pyrimidin-2-yl]pyridin-2-yl]urea], the concentration for half-maximal inhibition (IC50) was found to be 275 nM.

Consider `C[C@H]1COCCN1c1cc(C2(S(=O)(=O)c3ccc(F)cc3)CC2)nc(-c2ccc(NC(=O)NCCO)nc2)n1` [Example 14l, 1-[5-[4-[1-(4-fluorophenyl)sulfonylcyclopro-pyl]-6-[(3S)-3-methylmorpholin-4-yl]pyrimidin-2-yl]pyridin-2-yl]-3-(2-hydroxyethyl)urea], for which the IC50 was 13.7 nM.

As for `C[C@H]1COCCN1c1cc(C2(S(=O)(=O)c3ccc(F)cc3)CC2)nc(-c2ccc(NC(=O)Nc3cnn(C)c3)nc2)n1` [Example 14m, 1-[5-[4-[1-(4-fluorophenyl)sulfonylcyclopro-pyl]-6-[(3S)-3-methylmorpholin-4-yl]pyrimidin-2-yl]pyridin-2-yl]-3-(1-methylpyrazol-4-yl)urea], the IC50 came to 14.3 nM.

Consider `C[C@H]1COCCN1c1cc(C2(S(C)(=O)=O)CCCC2)nc(-c2ccc(NC(=O)NC3CC3)nc2)n1` [Example 14n, 3-cyclopropyl-1-[5-[4-[(3S)-3-methylmorpholin-4-yl]-6-(1-methylsulfonylcyclopentyl)pyri-midin-2-yl]pyridin-2-yl]urea], for which the IC50 stood at 36.3 nM.

Turning to `CNC(=O)Nc1ccc(-c2nc(N3CCOC[C@@H]3C)cc(C3(S(C)(=O)=O)CCCC3)n2)cn1` [Example 14o, 3-methyl-1-[5-[4-[(3S)-3-methylmorpholin-4-yl]-6-(1-methylsulfonylcyclopentyl)pyri-midin-2-yl]pyridin-2-yl]urea], the concentration for half-maximal inhibition (IC50) worked out at 21.7 nM.

For `C[C@H]1COCCN1c1cc(C2(S(C)(=O)=O)CCCC2)nc(-c2ccc(NC(=O)NCCN(C)C)nc2)n1` [Example 14p, 3-(2-dimethylaminoethyl)-1-[5-[4-[(3S)-3-methylmorpholin-4-yl]-6-(1-methylsulfonylcyclopentyl)pyri-midin-2-yl]pyridin-2-yl]urea], the IC50 was found to be 537 nM.

For the compound `C[C@H]1COCCN1c1cc(C2(S(C)(=O)=O)CCCC2)nc(-c2ccc(NC(=O)NCCO)nc2)n1` [Example 14q, 3-(2-hydroxyethyl)-1-[5-[4-[(3S)-3-methylmorpholin-4-yl]-6-(1-methylsulfonylcyclopentyl)pyri-midin-2-yl]pyridin-2-yl]urea], the IC50 is 26.5 nM.

For the compound `C[C@H]1COCCN1c1cc(C2(S(C)(=O)=O)CCCC2)nc(-c2ccc(NC(=O)Nc3cnn(C)c3)nc2)n1` [Example 14r, 1-[5-[4-[(3S)-3-methylmorpholin-4-yl]-6-(1-methylsulfonylcyclopentyl)pyri-midin-2-yl]pyridin-2-yl]-3-(1-methylpyrazol-4-yl)urea], the IC50 came to 10.3 nM.

The values are drawn from patent US20090018134A1, “Compounds - 945” (AstraZeneca AB, priority 2007, published 2009).
